Key:
UGT1A7 = biological target: T1, UGT1A7 (Homo sapiens, UniProt Q9HAW7); assay: Glucuronidation by recombinant human UGT1A7; details: UGT1A7, substrate 10 μM
T1 sequence (Q9HAW7 26-530): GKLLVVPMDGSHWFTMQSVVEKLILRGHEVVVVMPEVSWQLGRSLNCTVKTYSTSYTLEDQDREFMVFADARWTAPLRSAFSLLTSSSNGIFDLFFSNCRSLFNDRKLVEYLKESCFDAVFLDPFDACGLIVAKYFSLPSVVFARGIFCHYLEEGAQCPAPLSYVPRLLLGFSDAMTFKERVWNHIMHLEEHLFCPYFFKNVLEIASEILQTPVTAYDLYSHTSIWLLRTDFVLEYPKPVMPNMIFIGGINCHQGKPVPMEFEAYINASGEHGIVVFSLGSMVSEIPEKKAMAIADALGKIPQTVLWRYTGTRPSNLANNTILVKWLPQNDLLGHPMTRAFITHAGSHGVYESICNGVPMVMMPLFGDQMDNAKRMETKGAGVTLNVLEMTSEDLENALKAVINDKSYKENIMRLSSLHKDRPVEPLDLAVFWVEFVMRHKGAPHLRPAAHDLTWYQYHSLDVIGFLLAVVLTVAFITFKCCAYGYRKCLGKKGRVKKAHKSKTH

[1] = cited from earlier work
UGT1A10 = biological target: T2, UGT1A10 (Homo sapiens, UniProt Q9HAW8); assay: Glucuronidation by recombinant human UGT1A10; details: UGT1A10, substrate 10 μM
T2 sequence (Q9HAW8 26-530): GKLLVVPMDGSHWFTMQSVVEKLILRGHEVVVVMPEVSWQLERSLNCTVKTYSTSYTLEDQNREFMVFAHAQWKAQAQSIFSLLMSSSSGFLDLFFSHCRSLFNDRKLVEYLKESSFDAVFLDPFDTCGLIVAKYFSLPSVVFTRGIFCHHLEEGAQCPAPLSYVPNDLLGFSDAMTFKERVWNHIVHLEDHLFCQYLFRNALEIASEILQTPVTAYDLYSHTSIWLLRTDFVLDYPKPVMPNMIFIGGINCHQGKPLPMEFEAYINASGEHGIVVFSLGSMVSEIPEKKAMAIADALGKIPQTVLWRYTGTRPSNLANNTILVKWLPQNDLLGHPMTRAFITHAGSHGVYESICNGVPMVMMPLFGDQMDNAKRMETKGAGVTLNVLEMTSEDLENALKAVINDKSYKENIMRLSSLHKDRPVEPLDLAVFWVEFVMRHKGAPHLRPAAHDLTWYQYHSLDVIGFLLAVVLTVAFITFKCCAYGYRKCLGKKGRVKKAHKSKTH

UGT1A3 = biological target: T3, UGT1A3 (Homo sapiens, UniProt P35503); details: pH 7.4
T3 sequence (P35503 29-534): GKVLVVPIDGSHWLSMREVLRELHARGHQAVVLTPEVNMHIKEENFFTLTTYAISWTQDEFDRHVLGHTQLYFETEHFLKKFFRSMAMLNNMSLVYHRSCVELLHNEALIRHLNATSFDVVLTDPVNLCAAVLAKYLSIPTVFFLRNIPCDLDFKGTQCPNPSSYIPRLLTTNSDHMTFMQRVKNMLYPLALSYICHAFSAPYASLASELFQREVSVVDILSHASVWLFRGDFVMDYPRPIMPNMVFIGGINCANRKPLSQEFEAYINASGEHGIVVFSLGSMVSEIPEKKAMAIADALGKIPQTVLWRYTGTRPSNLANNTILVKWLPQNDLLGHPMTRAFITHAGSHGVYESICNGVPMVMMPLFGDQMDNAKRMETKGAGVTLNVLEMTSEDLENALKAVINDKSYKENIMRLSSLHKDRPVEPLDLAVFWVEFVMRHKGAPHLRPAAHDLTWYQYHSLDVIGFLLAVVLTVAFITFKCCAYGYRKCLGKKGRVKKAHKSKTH

UGT1A6 = biological target: T4, UGT1A6 (Homo sapiens, UniProt P19224); details: 10 μM, pH 7.4
T4 sequence (P19224 27-532): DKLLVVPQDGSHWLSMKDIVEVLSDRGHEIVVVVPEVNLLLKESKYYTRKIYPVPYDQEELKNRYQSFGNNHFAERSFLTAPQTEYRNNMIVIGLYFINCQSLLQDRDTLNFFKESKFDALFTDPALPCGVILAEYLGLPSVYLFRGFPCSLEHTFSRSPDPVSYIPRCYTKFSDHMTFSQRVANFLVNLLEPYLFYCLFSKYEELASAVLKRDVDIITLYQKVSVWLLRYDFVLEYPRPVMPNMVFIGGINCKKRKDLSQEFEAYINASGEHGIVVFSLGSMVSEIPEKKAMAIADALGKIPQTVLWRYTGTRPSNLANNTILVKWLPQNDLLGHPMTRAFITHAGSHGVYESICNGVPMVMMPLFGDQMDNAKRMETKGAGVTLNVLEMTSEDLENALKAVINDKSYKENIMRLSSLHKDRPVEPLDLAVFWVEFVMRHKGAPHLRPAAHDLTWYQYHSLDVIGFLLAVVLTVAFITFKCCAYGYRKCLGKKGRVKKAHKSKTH

UGT1A9 = biological target: T5, UGT1A9 (Homo sapiens, UniProt O60656); details: pH 7.4
T5 sequence (O60656 26-530): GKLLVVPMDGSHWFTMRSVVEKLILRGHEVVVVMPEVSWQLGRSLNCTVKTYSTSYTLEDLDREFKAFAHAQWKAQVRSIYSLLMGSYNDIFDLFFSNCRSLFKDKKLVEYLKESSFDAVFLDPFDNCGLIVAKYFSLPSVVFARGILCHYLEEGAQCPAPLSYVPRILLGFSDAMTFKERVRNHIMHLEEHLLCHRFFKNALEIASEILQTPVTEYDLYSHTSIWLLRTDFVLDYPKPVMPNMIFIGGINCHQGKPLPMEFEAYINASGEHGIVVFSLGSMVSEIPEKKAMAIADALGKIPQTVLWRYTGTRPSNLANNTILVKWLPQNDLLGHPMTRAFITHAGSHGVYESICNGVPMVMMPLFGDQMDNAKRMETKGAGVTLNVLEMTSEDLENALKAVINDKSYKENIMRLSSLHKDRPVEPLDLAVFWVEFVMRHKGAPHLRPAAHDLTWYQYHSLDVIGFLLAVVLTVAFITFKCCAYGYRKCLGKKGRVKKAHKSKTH

Row | Hydroxyl positions glucuronidated (UGT1A7) | Hydroxyl positions glucuronidated (UGT1A10) | Degree of regiospecificity (major glucuronide in bracket) (UGT1A3; 2.5 μM) | Hydroxyl positions glucuronidated (UGT1A3; 10 μM) | Degree of regiospecificity (major glucuronide in bracket) (UGT1A9; 2.5 μM) | Hydroxyl positions glucuronidated (UGT1A9; 10 μM) | SMILES | Predominant form in plasma ([1]; after oral intake in human) | Hydroxyl positions glucuronidated (UGT1A6) | Glucuronide predominantly formed ([1]; human volunteers)
1 | glucuronidated 3-O, 7-O and 4’-O | glucuronidated 3-O, 7-O and 4’-O | – | – | – | – | O=c1c(O)c(-c2ccc(O)cc2)oc2cc(O)cc(O)c12 [5,7,4'THFnol, 3,5,7,4’-tetrahydroxyflavone] | 3-O-glucuronide of kaempferol was found to be the predominant form in plasma | – | –
2 | – | – | Dominant (7-O) | glucuronidated 7-O position only | Dominant (7-O) | glucuronidated 7-O position only | O=c1cc(-c2ccccc2)oc2cc(O)cc(O)c12 [5,7DHF, 5,7-dihydroxyflavone] | – | glucuronidated both 7-O and 5-O positions | predominantly form 7-O-glucuronide

Source: article PMC3391414 (Journal of Agricultural and Food Chemistry, 2011)
